According to US20070142635A1, “Process for preparing hexahydropyrimido[1,2-a]azepine-2-carboxylates and related compounds” (priority 2003, published 2007):

Target: HIV integrase (Human immunodeficiency virus type 1 group M subtype B, UniProt P04585)
Assay: assay described in WO 02/30930 for inhibition of strand transfer in HIV integrase
Assay type: biochemical
Source text: As is clear from the foregoing description, compounds embraced by Formula X or XI and precursors thereof are useful as intermediates in the preparation of Compounds XII, XIII and XIV, which are HIV integrase inhibitors useful, inter alia, in treating HIV infection.

CN(C)C(=O)C(=O)N(C)C1CCCCn2c1nc(C(=O)NCc1ccc(F)cc1)c(O)c2=O (racemic) [Compound 14, N-(2-{[(4-fluorobenzyl)amino]carbonyl}-3-hydroxY4-oxo-4,6,7,8,9,10-hexahydropyrnidor[1,2-α]azepin-10-yl)-N,N′,N′-trimethylethanediamide]
inhibition of strand transfer in HIV integrase: exhibited activity
